Where a name gives a salt, the structure may show the parent alone.
Assay: Nanoparticle zeta potential (Malvern Zetasizer Nano ZS)
Assay type: physicochemical
Conditions: LNP with sterol amine, core LNP Compound 18, DSPC, Cholesterol, and DMG-PEG 2K, [mRNA] 0.01 mg/mL in 0.1×PBS
Description: LNPs were prepared according to Example 2. Zeta potential was measured by diluting LNPs to [mRNA] 0.01 mg/mL in 0.1×PBS on a Malvern Zetasizer (Nano ZS).

Compound | Zeta Potential [mV] | Zeta Potential (β-sitosterol) [mV]
CC(C)CCC[C@@H](C)[C@H]1CC[C@H]2[C@@H]3CC=C4C[C@@H](OC(=O)N(CCCN)CCCCNCCCN)CC[C@]4(C)[C@H]3CC[C@]12C [SA3, (3S,8S,9S,10R,13R,14S,17R)-10,13-dimethyl-17-((R)-6-methylheptan-2-yl)-2,3,4,7,8,9,10,11,12,13,14,15,16,17-tetradecahydro-1H-cyclopenta[a]phenanthren-3-yl (3-aminopropyl)(4-((3-aminopropyl)amino)butyl)carbamate, trihydrochloride salt] | 10.6 | 
CC(C)CCC[C@@H](C)[C@H]1CC[C@H]2[C@@H]3CC=C4C[C@@H](OC(=O)NCCNC(=N)N)CC[C@]4(C)[C@H]3CC[C@]12C [SA23, (3S,8S,9S,10R,13R,14S,17R)-10,13-dimethyl-17-((R)-6-methylheptan-2-yl)-2,3,4,7,8,9,10,11,12,13,14,15,16,17-tetradecahydro-1H-cyclopenta[a]phenanthren-3-yl (2-guanidinoethyl)carbamate, hydrochloride salt] |  | 12.7
CC(C)CCC[C@@H](C)[C@H]1CC[C@H]2[C@@H]3CC=C4C[C@@H](OC(=O)N(CCCN)CCCCN)CC[C@]4(C)[C@H]3CC[C@]12C [SA29, (3S,8S,9S,10R,13R,14S,17R)-10,13-Dimethyl-17-((R)-6-methylheptan-2-yl)-2,3,4,7,8,9,10,11,12,13,14,15,16,17-tetradecahydro-1H-cyclopenta[a]phenanthren-3-yl (4-aminobutyl)(3-aminopropyl)carbamate dihydrochloride] |  | 8.3
CC(C)CCC[C@@H](C)[C@H]1CC[C@H]2[C@@H]3CC=C4C[C@@H](OC(=O)NCCCNCCCCN)CC[C@]4(C)[C@H]3CC[C@]12C [SA30, (3S,8S,9S,10R,13R,14S,17R)-10,13-Dimethyl-17-((R)-6-methylheptan-2-yl)-2,3,4,7,8,9,10,11,12,13,14,15,16,17-tetradecahydro-1H-cyclopenta[a]phenanthren-3-yl (3-((4-aminobutyl)amino)propyl)carbamate dihydrochloride] |  | 8.7
CC(C)CCC[C@@H](C)[C@H]1CC[C@H]2[C@@H]3CC=C4C[C@@H](OC(=O)CCC(=O)N(CCCN)CCCCN)CC[C@]4(C)[C@H]3CC[C@]12C [SA31, (3S,8S,9S,10R,13R,14S,17R)-10,13-Dimethyl-17-((R)-6-methylheptan-2-yl)-2,3,4,7,8,9,10,11,12,13,14,15,16,17-tetradecahydro-1H-cyclopenta[a]phenanthren-3-yl 4-((4-aminobutyl)(3-aminopropyl)amino)-4-oxobutanoate dihydrochloride] |  | 8.6

Reference: patent publication US20250049727A1, “COMPOSITIONS FOR THE DELIVERY OF PAYLOAD MOLECULES TO AIRWAY EPITHELIUM” (ModernaTX, Inc., priority 2021, published 2025)
